These are literature values, as cited in patent publication US20190083388A1, “SYNTHENTIC TRANSDERMAL CANNABIDIOL FOR THE TREATMENT OF FOCAL EPILEPSY IN ADULTS” (ZYNERBA PHARMACEUTICALS, INC., priority 2017, published 2019).

Data set [1] concerns the target CB2 receptors (Homo sapiens, UniProt P34972).
Assay in data set [2]: not given
The source holds these as a separate data set.

Like-named read-outs stand apart in the source and are kept apart here.

Sequence of CB2 receptors (P34972 whole entry): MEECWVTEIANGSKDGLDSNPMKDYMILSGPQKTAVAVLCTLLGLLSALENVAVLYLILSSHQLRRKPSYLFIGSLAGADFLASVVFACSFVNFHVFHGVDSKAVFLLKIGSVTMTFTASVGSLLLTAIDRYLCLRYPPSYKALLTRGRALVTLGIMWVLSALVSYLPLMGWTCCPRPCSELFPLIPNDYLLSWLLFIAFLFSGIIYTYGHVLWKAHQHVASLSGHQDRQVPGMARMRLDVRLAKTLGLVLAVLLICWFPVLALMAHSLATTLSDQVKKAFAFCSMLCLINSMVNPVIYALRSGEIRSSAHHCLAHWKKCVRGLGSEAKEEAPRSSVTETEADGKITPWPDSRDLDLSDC

Take `C=C(C)C1CCC(C)=CC1c1c(O)cc(CCCCC)cc1O` (stereo not shown) [CBD, 2-[3-methyl-6-(1-methylethenyl)-2-cyclohexen-1-yl]-5-pentyl-1,3-benzenediol]: the solubility in water result is listed as “virtually insoluble”. In data set [1], the “affinity for CB2 receptors” value was “low affinity”. For the same molecule, the bioavailability result in data set [2] (oral) is “≈ 6%”. For the same molecule, the bioavailability result in data set [2] (transdermal delivery) was “about 25%”.
